Data set [1] in a line: Solubility of relaxin B chain peptides in aqueous solution. The note with it: aqueous solution.
In data set [2] the test system is RM1 mouse prostate tumour cells. As to the kind of experiment: Prostate tumour growth after injection of RM1 cells into prostates of C57BL/6 mice. The data set is classed as in vivo. The conditions noted are these: day 10 after RM1 cells, s.c. mini-pump from day 2, H2 relaxin 0.15, B7-33 C11.23S 0.075 mg/kg/day, vs untreated. The text has this: (§1) Seven to eight-week old male 129SV mice (which are sensitive to tissue injury and fibrosis) and age-matched female Balb/c mice (which are sensitive to changes in airway hyperresponsiveness) were used for the induction of isoproterenol-induced cardiomyopathy and ovalbumin-induced chronic allergic airways disease, respectively. 16 five week-old male C57BL/6 mice were used in the induction of prostate cancer growth. All animals were obtained from Monash Animal Services (Monash University, Clayton, Victoria, Australia) and housed under standard conditions (maintained on an 12 h light-12 h dark lighting cycle with free access to food and water) in the Department of Pharmacology Animal Room at Monash University.
H2 relaxin can induce prostate and other tumour growth. To measure the effect of B7-33 C11.23S on tumour growth, 16 five week-old male C57BL/6 mice (obtained from Monash Animal Services) were injected with 5000 RM1 (mouse prostate tumor) cells into their prostates to induce tumor growth. One sub-group of mice n=5) was left untreated until day 10 post-RM1 cell administration. […]

Data set [3] relates to mouse model of OVA-induced chronic allergic airway disease. As to the kind of experiment: Mouse model of OVA-induced chronic allergic airway disease. The class given is in vivo. The note with it: Balb/c mice.
Description: as §1
Twenty-four hours after the last vehicle/drug administration, methacholine-induced airway reactivity was assessed by invasive plethysmography as described before (Locke et al. 2007, Am J Respir Mol Biol 36, 625-632; Royce et al. 2009, Endocrinology 150, 2692-2699). Mice were anaesthetized intraperitoneally with 200 μg/g ketamine and 10 μg/g xylazine. Tracheotomy was performed using an 18-gauge tracheotomy tube and jugular vein cannulated with a 0.61 9 0.28 mm polyethylene tube (Microtube Extrusions, North Rocks, NSW, Australia), Mice were then placed in a plethysmograph chamber (Buxco Research Systems, Wilmington, N.C., USA) where increasing concentrations of acetyl-β-methacholine (from 31.25 μg/kg to 500 μg/kg) were delivered intravenously in five doses. After every dose, airway resistance and compliance were measured (Biosystem XA version 2.7.9; Buxco Electronics Inc, Wilmington, N.C., USA). The change in airway resistance calculated by the maximal resistance after each dose minus baseline resistance (phosphate buffered saline alone) was plotted against each dose of methacholine evaluated.
(§2) The mid zone of the male mouse heart and largest lung lobe from female Balb/c mice were fixed in 10% neutral buffered formalin for 24-48 h before being processed and embedded routinely in paraffin wax. Representative sections of tissue, 3-5 um each, were taken and stained with either picrosirius red (Samuel et al. 2011 Lab Invest 91, 675-690) for the detection of interstitial collagen or Masson's trichrome (Royce et al, 2009, Endocrinology 150, 2692-2699) for the detection of subepithelial basement membrane collagen deposition).
(§3) Changes in picrosirius-red stained interstitial collagen or epithelial thickness and subepithelial collagen (fibrosis) around the airway lumen from Masson's trichrome-stained sections; which were all captured (at ×20 magnification) using a SPOT digital camera (Q Imaging, Burnaby, BC, Canada) and analysed with Image J 1.3 software (National Institutes of Health, Bethesda, Md.). Four to five fields per mid zone of the heart or 4-5 airways (of 150-350 μm in diameter) per mouse were assessed. Epithelial thickness and subepithelial collagen regions were traced with a digital pen and the thickness of each region calculated by the imaging software. Results were expressed as mean thickness ([…]) of the 4-5 airways sampled.
(§4) The apical region of the heart or second largest lung lobe from each mouse was treated as described previously (Samuel C S, et at., 2003, FASEB J 17, 121-123; Royce et at. 2009, Endocrinology 150, 2692-2699) for the determination of hydroxyproline content. Hydroxyproline values were estimated based on a standard curve constructed with serial dilutions of a 0.1 mg/mL stock of trans-4-hydroxyproline-L-proline (Sigma-Aldrich). Hydroxyproline values were then converted to collagen content as detailed previously (Samuel CS, et al. 2004. Endocrinology 145, 4125-4133) and, in turn, divided by the dry weight of each corresponding left ventricular or lung tissue assessed to yield collagen concentration (a measure of fibrosis).
The inventors also tested the fibrosis preventing activity of B7-33 C11.23S in a model of chronic allergic airway disease (AAD). […]

The conditions of data set [4]: dose printed as 0.5 mg/mg/day; Samuel et al. 2003; cited from earlier work.
The test system of data set [5] is rat model of myocardial infarction. As to the kind of experiment: Rat model of myocardial infarction-induced heart failure. The note with it: vs vehicle. The class given is in vivo. As to the method:
Adult male Sprague-Dawley rats weighing 250-320 g were obtained from Animal Resources Centre, Perth, Wash., Australia. The rats were group housed in a constant temperature of 22±1° C. and a relative humidity of 50-60% under a controlled light-dark cycle of 12 hours. Rats were given access to standard laboratory rat chow and drinking water ad libitum.
Heart failure was induced as previously described (Ruchaya et al., 2014, Exp Physiol 99, 111-122). Breifly, to induce heart failure, rats were anaesthetised with an intramuscular injection of ketamine (60 mg/kg) and medetomide hydrochloride ([…]). A left sided thoracotomy through an opening between the fourth and fifth rib was performed, the heart was exteriorised and the left anterior descending coronary artery was ligated. Anaesthesia was reversed with antipamezole hydrocholide (1 mg/kg). Penicillin (1000 U) and buprenorphine (0.05 mg/kg) was administered to aid post-operative recovery. Animals were left to recover from the surgery under a heating source. Rats were individually housed after the surgery.
Eight weeks after myocardial infarction surgery, rats were randomly assigned to 3 groups (vehicle, H2 and B7-33), re-anaesthetised (2-3% isoflurane) and an osmotic mini-pump (model 2ML4, Alzet, Cupertino, Calif.) implanted intraperitoneally. Vehicle (saline), native H2 relaxin (0.5 mg/kg/day) or B7-33 C11.23S (0.5 mg/kg/day) was continuously administered for 28 days. At the conclusion of treatment, rats were anaesthetized (sodium pentobarbitone, 60 mg/kg i.p.) and the left ventricular end-diastolic pressure determined prior to decapitation and removal of the heart for histological analysis.

In data set [6] the test system is mouse model of isoproterenol (ISO) induced cardiac fibrosis. As to the kind of experiment: Mouse model of isoproterenol-induced cardiomyopathy (cardiac fibrosis). The note with it: 129SV mice, 14 days, s.c. minipump; relative to isoproterenol treatment. The data set is classed as in vivo.
Description: as §1, §2, §3
as §4, with “fibrosis). […]” for “fibrosis).”

Turning to “H2 relaxin: Native human relaxin-2: heterodimer of A chain (24 residues) and B1-29 B chain with three disulfide bonds”, in data set [1], the “Aqueous solubility (in words)” value is reported as “very soluble”. Further, the Prostate tumour size entry in data set [2] was “significantly increased tumour size”. For the same substance, the “Airway hyper-responsiveness (change in airway resistance to methacholine)” value in data set [3] (OVA-induced increase, invasive plethysmography, FIG. 8D) is “attenuated”. Moreover, in data set [3] (compared to OVA treatment, FIG. 8B), the “Mean airway epithelial thickness” value is given as “significantly reduced”. Also, in data set [3] (relative to OVA treatment, FIG. 8C), the “Total lung collagen content (hydroxyproline analysis)” value was “normalised”. For the same substance, the Circulating levels in data set [4] is 20 to 40 ng/mL. Besides, the “Percentage of collagen in the interstitial area of the left ventricle” value in data set [5] (0.5 mg/kg/day i.p. mini-pump for 28 days from 8 weeks after MI) is “significant reduction”. Also, in data set [5] (12 weeks after myocardial infarction), the “Left ventricular end-diastolic pressure (LVEDP)” value is recorded as “reduced”. Further, in data set [6], the “Percentage of interstitial collagen in the left ventricle (picrosirius red)” value is recorded as “significantly reduced” and the “Total left ventricular collagen concentration (hydroxyproline analysis)” value is reported as “significantly reduced”.

These data come from US10081662B2, “Modified relaxin B chain peptides” (The Florey Institute of Neuroscience and Mental Health, priority 2014, dated 2018).
